According to ChEMBL document CHEMBL1155906, “Structural modifications of N-arylamide oxadiazoles: Identification of N-arylpiperidine oxadiazoles as potent and selective agonists of CB2” (Bioorg Med Chem Lett, 2008):
Values after ≈ are worked out from the molar mass of the structure shown.

Tests used:
[1] = molecular target: T1, Beta-1 adrenergic receptor (Homo sapiens, UniProt P08588); assay: Inhibition of adrenergic beta-1 receptor
[2] = molecular target: T2, 5-hydroxytryptamine receptor 1A (Homo sapiens, UniProt P08908); assay: Inhibition of 5HT1A receptor
T2 sequence (P08908 whole entry): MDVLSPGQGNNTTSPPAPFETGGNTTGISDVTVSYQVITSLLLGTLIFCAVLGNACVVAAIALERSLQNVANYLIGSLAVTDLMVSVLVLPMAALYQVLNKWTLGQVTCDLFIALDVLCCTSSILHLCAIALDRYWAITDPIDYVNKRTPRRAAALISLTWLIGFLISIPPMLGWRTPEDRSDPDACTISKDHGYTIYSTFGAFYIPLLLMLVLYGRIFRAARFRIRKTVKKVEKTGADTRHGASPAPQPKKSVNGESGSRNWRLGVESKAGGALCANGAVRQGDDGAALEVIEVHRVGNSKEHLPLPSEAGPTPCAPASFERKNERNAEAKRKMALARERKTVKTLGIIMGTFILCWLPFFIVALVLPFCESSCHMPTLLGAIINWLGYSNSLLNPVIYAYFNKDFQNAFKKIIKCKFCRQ

Cannabinoid receptor 1 [3] = molecular target: T3, Cannabinoid receptor 1 (Homo sapiens, UniProt P21554); assay: Agonist activity at human CB1 receptor assessed as inhibition of forskolin-induced increase in intracellular cAMP relative to CP-55940; assay type: functional, cell-based
T3 sequence (P21554 whole entry): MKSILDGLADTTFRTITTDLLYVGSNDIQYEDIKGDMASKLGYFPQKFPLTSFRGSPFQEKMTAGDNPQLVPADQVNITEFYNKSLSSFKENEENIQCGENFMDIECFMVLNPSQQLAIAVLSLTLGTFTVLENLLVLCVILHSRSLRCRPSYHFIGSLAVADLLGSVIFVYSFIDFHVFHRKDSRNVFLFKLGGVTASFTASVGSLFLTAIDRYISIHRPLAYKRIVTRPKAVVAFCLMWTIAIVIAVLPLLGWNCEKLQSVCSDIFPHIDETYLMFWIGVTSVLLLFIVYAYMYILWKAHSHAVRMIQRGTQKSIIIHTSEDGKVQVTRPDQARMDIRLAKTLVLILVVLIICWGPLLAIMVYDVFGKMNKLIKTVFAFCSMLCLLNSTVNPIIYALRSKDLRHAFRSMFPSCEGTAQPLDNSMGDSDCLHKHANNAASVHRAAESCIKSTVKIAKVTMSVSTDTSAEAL

Cannabinoid receptor 2 [4] = molecular target: T4, Cannabinoid receptor 2 (Homo sapiens, UniProt P34972); assay: Agonist activity at human CB2 receptor assessed as inhibition of forskolin-induced increase in intracellular cAMP; assay type: functional, cell-based
T4 sequence (P34972 whole entry): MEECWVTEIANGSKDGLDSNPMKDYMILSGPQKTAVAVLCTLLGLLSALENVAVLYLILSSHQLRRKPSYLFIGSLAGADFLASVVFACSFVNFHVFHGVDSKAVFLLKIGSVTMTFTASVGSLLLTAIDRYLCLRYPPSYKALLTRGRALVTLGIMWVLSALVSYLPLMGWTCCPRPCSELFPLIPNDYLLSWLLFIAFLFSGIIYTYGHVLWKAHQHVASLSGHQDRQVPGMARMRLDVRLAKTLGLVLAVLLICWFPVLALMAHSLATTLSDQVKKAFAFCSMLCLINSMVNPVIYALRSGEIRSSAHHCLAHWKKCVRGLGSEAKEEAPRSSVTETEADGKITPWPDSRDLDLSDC

[5] = molecular target: T5, 5-hydroxytryptamine receptor 2B (Homo sapiens, UniProt P41595); assay: Agonist activity at 5HT2B receptor; assay type: functional
T5 sequence (P41595 whole entry): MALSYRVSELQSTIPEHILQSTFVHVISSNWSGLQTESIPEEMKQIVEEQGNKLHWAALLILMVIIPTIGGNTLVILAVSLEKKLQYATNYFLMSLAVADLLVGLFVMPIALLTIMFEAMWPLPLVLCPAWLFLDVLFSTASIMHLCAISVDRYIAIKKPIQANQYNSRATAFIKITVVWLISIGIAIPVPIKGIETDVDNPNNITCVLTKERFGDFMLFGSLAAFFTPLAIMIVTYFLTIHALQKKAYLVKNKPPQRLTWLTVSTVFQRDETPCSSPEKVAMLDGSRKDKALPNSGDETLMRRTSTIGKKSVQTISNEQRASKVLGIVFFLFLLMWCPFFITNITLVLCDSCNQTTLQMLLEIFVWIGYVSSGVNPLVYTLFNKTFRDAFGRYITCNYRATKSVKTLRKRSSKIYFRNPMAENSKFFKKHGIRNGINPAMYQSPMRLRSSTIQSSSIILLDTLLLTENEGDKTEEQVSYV

Cannabinoid receptor 2 [6] = molecular target: T4, Cannabinoid receptor 2; assay: Agonist activity at human CB2 receptor assessed as inhibition of forskolin-induced increase in intracellular cAMP relative to CP-55940; assay type: functional, cell-based
LLC-PK1 [7] = assay: Ratio of permeability from basolateral to apical side to apical to basolateral side in pig LLC-PK1 cells expressing human MDR1 at 5 uM in presence of 0.1% BSA; assay type: ADME, cell-based, Sus scrofa; conditions: llc-pk1, 5 µM
Histamine H1 receptor [8] = molecular target: T6, Histamine H1 receptor (Homo sapiens, UniProt P35367); assay: Inhibition of histamine H1 receptor
T6 sequence (P35367 whole entry): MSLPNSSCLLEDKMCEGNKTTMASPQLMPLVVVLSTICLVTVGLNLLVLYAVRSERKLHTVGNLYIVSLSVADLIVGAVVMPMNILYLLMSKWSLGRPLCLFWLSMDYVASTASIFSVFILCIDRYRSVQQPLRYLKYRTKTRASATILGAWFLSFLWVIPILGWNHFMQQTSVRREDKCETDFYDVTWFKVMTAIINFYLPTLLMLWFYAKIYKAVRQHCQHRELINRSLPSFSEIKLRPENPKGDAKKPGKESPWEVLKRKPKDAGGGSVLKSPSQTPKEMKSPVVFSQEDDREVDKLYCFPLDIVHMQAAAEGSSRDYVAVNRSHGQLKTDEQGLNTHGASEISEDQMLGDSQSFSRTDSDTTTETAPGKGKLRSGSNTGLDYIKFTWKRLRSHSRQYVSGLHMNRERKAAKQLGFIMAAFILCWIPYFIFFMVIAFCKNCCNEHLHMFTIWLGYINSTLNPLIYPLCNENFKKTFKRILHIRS

[9] = Volume of distribution at steady state in Sprague-Dawley rat at 0.5 mg/kg, iv; assay type: ADME, organism-based; parameters: dose 0.5 mg/kg, route intravenous; conditions: in vivo, read-out: Vdss
[10] = molecular target: Voltage-gated inwardly rectifying potassium channel KCNH2 (Homo sapiens, UniProt Q12809); assay: Displacement of radiolabeled dofetilide from human ERG
[11] = Inhibition of CXR2 receptor
D(2) dopamine receptor [12] = molecular target: T7, D(2) dopamine receptor (Homo sapiens, UniProt P14416); assay: Inhibition of dopamine D2 receptor
T7 sequence (P14416 whole entry): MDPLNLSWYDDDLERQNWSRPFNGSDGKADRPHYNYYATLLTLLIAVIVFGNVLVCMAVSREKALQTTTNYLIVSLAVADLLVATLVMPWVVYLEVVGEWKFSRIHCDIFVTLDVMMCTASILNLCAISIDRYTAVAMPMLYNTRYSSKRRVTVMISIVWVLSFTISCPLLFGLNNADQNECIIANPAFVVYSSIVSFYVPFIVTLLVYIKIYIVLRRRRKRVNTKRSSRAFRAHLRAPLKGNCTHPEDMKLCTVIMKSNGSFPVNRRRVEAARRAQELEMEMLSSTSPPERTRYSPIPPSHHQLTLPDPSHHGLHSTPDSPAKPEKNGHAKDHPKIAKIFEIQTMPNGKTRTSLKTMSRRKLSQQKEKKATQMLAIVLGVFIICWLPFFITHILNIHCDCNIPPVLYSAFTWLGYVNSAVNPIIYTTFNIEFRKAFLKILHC

LLC-PK1 [13] = assay: Ratio of permeability from basolateral to apical side to apical to basolateral side in pig wild-type LLC-PK1 cells at 5 uM in presence of 0.1% BSA; assay type: ADME, cell-based, Sus scrofa; conditions: llc-pk1, 5 µM
Mu-type opioid receptor [14] = molecular target: T8, Mu-type opioid receptor (Homo sapiens, UniProt P35372); assay: Inhibition of mu opioid receptor
T8 sequence (P35372 whole entry): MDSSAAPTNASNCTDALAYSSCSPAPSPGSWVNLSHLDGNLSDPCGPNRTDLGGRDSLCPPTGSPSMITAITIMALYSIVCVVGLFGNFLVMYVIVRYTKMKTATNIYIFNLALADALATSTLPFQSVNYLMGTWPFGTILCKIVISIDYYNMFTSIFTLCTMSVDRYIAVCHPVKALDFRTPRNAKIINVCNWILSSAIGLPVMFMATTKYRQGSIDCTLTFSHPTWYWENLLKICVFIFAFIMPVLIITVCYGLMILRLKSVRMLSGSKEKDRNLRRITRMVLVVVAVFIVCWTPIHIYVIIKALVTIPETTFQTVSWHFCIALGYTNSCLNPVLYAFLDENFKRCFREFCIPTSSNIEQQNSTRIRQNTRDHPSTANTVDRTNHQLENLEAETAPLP

[15] = Bioavailability in Sprague-Dawley rat at 10 mg/kg, po; assay type: ADME, organism-based; conditions: in vivo
[16] = Inhibition of adrenergic alpha1 receptor
[17] = molecular target: T1, Beta-1 adrenergic receptor; assay: Agonist activity at adrenergic beta-1 receptor; assay type: functional
[18] = Inhibition of CCR2b receptor
Cannabinoid receptor 2 [19] = molecular target: T4, Cannabinoid receptor 2; assay: Agonist activity at human CB2 receptor expressed in insect Sf9 cells assessed as effect on Eu-GTP binding
[20] = Agonist activity at CXR2 receptor; assay type: functional
[21] = Solubility in 0.01 N HCl; assay type: physicochemical
D(2) dopamine receptor [22] = molecular target: T7, D(2) dopamine receptor; assay: Agonist activity at dopamine D2 receptor; assay type: functional
[23] = molecular target: T9, Muscarinic acetylcholine receptor M1 (Homo sapiens, UniProt P11229); assay: Agonist activity at muscarinic M1 receptor; assay type: functional
T9 sequence (P11229 whole entry): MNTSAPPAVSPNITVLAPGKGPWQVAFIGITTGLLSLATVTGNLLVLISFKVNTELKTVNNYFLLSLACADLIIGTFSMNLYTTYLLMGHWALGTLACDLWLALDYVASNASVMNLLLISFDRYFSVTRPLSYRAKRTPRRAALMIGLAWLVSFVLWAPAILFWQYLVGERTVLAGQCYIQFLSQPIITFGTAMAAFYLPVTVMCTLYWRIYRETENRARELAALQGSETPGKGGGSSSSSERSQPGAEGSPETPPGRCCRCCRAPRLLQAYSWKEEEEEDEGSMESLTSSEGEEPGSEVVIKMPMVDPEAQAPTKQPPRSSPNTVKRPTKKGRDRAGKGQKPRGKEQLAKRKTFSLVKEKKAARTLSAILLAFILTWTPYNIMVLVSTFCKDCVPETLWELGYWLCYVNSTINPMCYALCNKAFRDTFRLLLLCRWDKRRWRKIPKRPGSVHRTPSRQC

[24] = Apparent permeability across pig wild-type LLC-PK1 cells at 5 uM in presence of 0.1% BSA; assay type: ADME, cell-based, Sus scrofa
[25] = Agonist activity at adrenergic alpha1 receptor; assay type: functional
[26] = Metabolic stability in human liver microsome assessed as intrinsic clearance; assay type: ADME; conditions: liver microsomes
Substance-P receptor [27] = molecular target: T10, Substance-P receptor (Homo sapiens, UniProt P25103); assay: Inhibition of NK1 receptor
T10 sequence (P25103 whole entry): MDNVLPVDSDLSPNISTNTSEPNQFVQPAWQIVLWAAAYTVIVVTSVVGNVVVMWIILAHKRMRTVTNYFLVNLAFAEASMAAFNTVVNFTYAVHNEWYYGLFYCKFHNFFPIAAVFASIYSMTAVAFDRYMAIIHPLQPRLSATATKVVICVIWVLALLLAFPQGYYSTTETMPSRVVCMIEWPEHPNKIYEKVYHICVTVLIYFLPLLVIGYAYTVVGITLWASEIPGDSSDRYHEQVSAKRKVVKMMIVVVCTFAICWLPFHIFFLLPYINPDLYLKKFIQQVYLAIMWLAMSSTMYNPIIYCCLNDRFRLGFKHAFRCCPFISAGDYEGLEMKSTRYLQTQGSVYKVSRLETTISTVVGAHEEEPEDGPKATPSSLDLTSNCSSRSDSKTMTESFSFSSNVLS

[28] = Clearance in Sprague-Dawley rat at 0.5 mg/kg, iv; assay type: ADME, organism-based; parameters: dose 0.5 mg/kg, route intravenous; conditions: in vivo
[29] = Agonist activity at CCR2b receptor; assay type: functional
[30] = Half life in Sprague-Dawley rat at 0.5 mg/kg, iv; assay type: ADME, organism-based; parameters: dose 0.5 mg/kg, route intravenous; conditions: in vivo
[31] = Solubility in phosphate buffer saline; assay type: physicochemical; conditions: phosphate buffered saline
Histamine H1 receptor [32] = molecular target: T6, Histamine H1 receptor; assay: Agonist activity at histamine H1 receptor; assay type: functional
[33] = Cmax in Sprague-Dawley rat at 10 mg/kg, po; assay type: ADME, organism-based; parameters: dose 10 mg/kg, route oral; conditions: in vivo
[34] = molecular target: T9, Muscarinic acetylcholine receptor M1; assay: Inhibition of muscarinic M1 receptor
[35] = Metabolic stability in rat liver microsome assessed as intrinsic clearance; assay type: ADME; conditions: liver microsomes
[36] = molecular target: T5, 5-hydroxytryptamine receptor 2B; assay: Inhibition of 5HT2B receptor
[37] = molecular target: T11, Somatostatin receptor type 4 (Homo sapiens, UniProt P31391); assay: Agonist activity at sst4 receptor; assay type: functional
T11 sequence (P31391 whole entry): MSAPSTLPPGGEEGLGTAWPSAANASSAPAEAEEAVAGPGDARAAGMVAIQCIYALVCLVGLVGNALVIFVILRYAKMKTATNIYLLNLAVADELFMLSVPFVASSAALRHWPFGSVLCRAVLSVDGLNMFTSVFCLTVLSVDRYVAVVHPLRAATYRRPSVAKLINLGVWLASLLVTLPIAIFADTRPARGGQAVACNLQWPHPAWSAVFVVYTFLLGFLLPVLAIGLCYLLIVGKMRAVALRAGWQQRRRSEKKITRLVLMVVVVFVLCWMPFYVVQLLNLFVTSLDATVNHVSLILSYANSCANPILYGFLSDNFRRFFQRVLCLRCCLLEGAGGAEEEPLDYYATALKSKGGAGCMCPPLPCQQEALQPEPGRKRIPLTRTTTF

human MDR1 (P-gp) = assay: Apparent permeability across pig LLC-PK1 cells transfected with human MDR1 at 5 uM in presence of 0.1% BSA; assay type: ADME, cell-based, Sus scrofa
Cannabinoid receptor 2 [38] = molecular target: T4, Cannabinoid receptor 2; assay: Agonist activity at human CB2 receptor expressed in insect Sf9 cells assessed as effect on Eu-GTP binding relative to CP-55940
Cannabinoid receptor 1 [39] = molecular target: T3, Cannabinoid receptor 1; assay: Agonist activity at human CB1 receptor expressed in insect Sf9 cells assessed as effect on Eu-GTP binding relative to CP-55940
Cannabinoid receptor 1 [40] = molecular target: T3, Cannabinoid receptor 1; assay: Agonist activity at human CB1 receptor assessed as inhibition of forskolin-induced increase in intracellular cAMP; assay type: functional, cell-based
Mu-type opioid receptor [41] = molecular target: T8, Mu-type opioid receptor; assay: Agonist activity at mu opioid receptor; assay type: functional
[42] = molecular target: T2, 5-hydroxytryptamine receptor 1A; assay: Agonist activity at 5HT1A receptor; assay type: functional
[43] = AUC (0 to 24 hrs) in Sprague-Dawley rat at 10 mg/kg, po; assay type: ADME, organism-based; parameters: time < 24 hr, dose 10 mg/kg, route oral; conditions: plasma
Cannabinoid receptor 1 [44] = molecular target: T3, Cannabinoid receptor 1; assay: Agonist activity at human CB1 receptor expressed in insect Sf9 cells assessed as effect on Eu-GTP binding
[45] = Solubility in simulated intestinal fluid; assay type: physicochemical
[46] = molecular target: T11, Somatostatin receptor type 4; assay: Inhibition of sst4 receptor
Substance-P receptor [47] = molecular target: T10, Substance-P receptor; assay: Agonist activity at NK1 receptor; assay type: functional

T1 sequence (P08588 whole entry): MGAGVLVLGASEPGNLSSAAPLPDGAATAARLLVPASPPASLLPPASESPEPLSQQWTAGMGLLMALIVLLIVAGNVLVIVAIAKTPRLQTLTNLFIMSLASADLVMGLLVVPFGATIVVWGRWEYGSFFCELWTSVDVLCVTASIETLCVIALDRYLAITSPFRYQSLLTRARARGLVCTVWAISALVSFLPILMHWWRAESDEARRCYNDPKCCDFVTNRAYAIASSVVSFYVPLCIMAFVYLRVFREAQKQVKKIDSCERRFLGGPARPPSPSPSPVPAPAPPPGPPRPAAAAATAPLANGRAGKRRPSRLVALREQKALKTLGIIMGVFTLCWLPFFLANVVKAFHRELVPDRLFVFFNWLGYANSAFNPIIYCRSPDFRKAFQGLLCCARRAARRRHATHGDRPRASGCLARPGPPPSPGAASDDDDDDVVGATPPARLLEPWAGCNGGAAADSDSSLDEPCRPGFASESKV

- IC50 [1]: > 50 µM
- IC50 [2]: > 50 µM
- Emax (Cannabinoid receptor 1 [3]): 19%
- EC50 (Cannabinoid receptor 2 [4]): 0.011 µM
- EC50 [5]: > 50 µM
- Emax (Cannabinoid receptor 2 [6]): 102%
- Ratio (LLC-PK1 [7]): 0.9
- IC50 (Histamine H1 receptor [8]): > 50 µM
- Vd [9]: 0.365 L/kg
- IC50 [11]: > 50 µM
- IC50 (D(2) dopamine receptor [12]): > 50 µM
- Ratio (LLC-PK1 [13]): 0.9
- IC50 (Mu-type opioid receptor [14]): > 50 µM
- bioavailability [15]: 2%
- IC50 [16]: > 50 µM
- EC50 [17]: > 50 µM
- IC50 [18]: > 50 µM
- EC50 (Cannabinoid receptor 2 [19]): 0.007 µM
- EC50 [20]: > 50 µM
- solubility [21]: < 1 µg/mL
- EC50 (D(2) dopamine receptor [22]): > 50 µM
- EC50 [23]: > 50 µM
- Papp at 5 µM [24]: 9.95 ×10⁻⁶ cm/s
- EC50 [25]: > 50 µM
- microsomal CLint [26]: 38 µL/min/mg
- IC50 (Substance-P receptor [27]): > 50 µM
- clearance [28]: 0.65 mL/min/kg
- EC50 [29]: > 50 µM
- half-life [30]: 8.9 h
- solubility [31]: < 1 µg/mL
- EC50 (Histamine H1 receptor [32]): > 50 µM
- Cmax [33]: 682 ng/mL
- IC50 [34]: > 50 µM
- microsomal CLint [35]: 32 µL/min/mg
- IC50 [36]: > 50 µM
- EC50 [37]: > 50 µM
- Papp at 5 µM (human MDR1 (P-gp)): 10.7 ×10⁻⁶ cm/s
- Emax (Cannabinoid receptor 2 [38]): 120%
- Emax (Cannabinoid receptor 1 [39]): 55%
- EC50 (Cannabinoid receptor 1 [40]): > 2 µM
- EC50 (Mu-type opioid receptor [41]): > 50 µM
- EC50 [42]: > 50 µM
- AUC(0-t) at 24 h [43]: 5240 ng·h/mL
- EC50 (Cannabinoid receptor 1 [44]): 1.43 µM
- solubility [45]: 2 µg/mL (≈ 4.51 µM)
- IC50 [46]: > 50 µM
- EC50 (Substance-P receptor [47]): > 50 µM
Structure (SMILES): Fc1ccc(-c2noc(C3CCN(c4cnc5ccc(Cl)cc5c4)CC3)n2)c(Cl)c1
- IC50 [10]: 0.5 µM
